# Reference: patent US12227520B2 (priority 2019, dated 2025)
# Where two headings read alike, the source gives them in different places.
# Assays:
# HIV-1 (IIIB) = assay: Antiviral assay in MT-4 cells (HIV MT-4 antiviral assay); assay type: cell-based; conditions: Human immunodeficiency virus 1, IIIB, MT4, 120 h, HIV-1 (IIIB) in MT-4 cells, 5 days incubation
# Procedure, shortened: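 Read-out is CellTiter-Glo chemiluminescence after 5-day culture at 37° C, giving protection of MT-4 cells from HIV-1 IIIB cytopathicity. Compounds tested in 1:3 dilution series in complete RPMI; controls were no drug, mock infection and 5 μM AZT.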
# [1] = Cytotoxicity assay in MT-4 cells; assay type: cell-based, human; conditions: human, uninfected MT-4 cells, 5 days incubation; read-out: CC50
# Procedure, shortened: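 For cytotoxicity, uninfected MT-4 cells were incubated with compounds 5 days at 37 °C, with 10 μM puromycin marking base cytotoxicity. Parallel plates used HIV-1 IIIB-infected (1:250 stock dilution) or mock cells with 5 μM AZT and no-drug controls. Read-out: CellTiter-Glo chemiluminescence.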
# pLai RLuc reporter virus = assay: microbe, parasite or virus in culture; assay type: cell-based, HIV; conditions: Human immunodeficiency virus 1, 72 h
# Procedure, shortened: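 Read-out is Renilla luciferase after 72 h at 37 °C in MT-4 cells infected 2 h beforehand with pLai RLuc reporter virus; compounds diluted 1:3.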
# [2] = read-out: Antiviral Serum Shift RLuc 50% HS, HS/CCM (RPMI media, 10% FBS, 50% HS, 1% P/S), 72-h incubation
# [3] = read-out: Antiviral Serum Shift RLuc CCM, CCM (RPMI media, 10% FBS, 1% P/S), 72-h incubation
SMILES,EC50 (HIV-1 (IIIB); read-out: EC50),CC50 at 5 days [1],EC50 (pLai RLuc reporter virus; [2]),EC50 (pLai RLuc reporter virus; [3]),EC50 (HIV-1 (IIIB))
"O=C(NCc1c(F)cc(F)cc1F)c1cn2c(c(O)c1=O)C(=O)N1CC[C@@H](F)C[C@@H]2C1 [Example 73-2, (5R, 7R)-5-fluoro-12-hydroxy-1,11-dioxo-N-(2,4,6-trifluorobenzyl)-1,4,5,6,7,11-hexahydro-3H-2,7-methanopyrido[1,2-a][1,4]diazonine-10-carboxamide]",1.82 nM,23100 nM,0.919 nM,0.283 nM,–
"C[C@]1(F)CCCN2C[C@H]1n1cc(C(=O)NCc3c(F)cc(F)cc3F)c(=O)c(O)c1C2=O [Example 179, (6S,7R)-6-fluoro-12-hydroxy-6-methyl-1,11-dioxo-N-(2,4,6-trifluorobenzyl)-1,4,5,6,7,11-hexahydro-3H-2,7-methanopyrido[1,2-a][1,4]diazonine-10-carboxamide]",1.49 nM,13100 nM,0.803 nM,0.335 nM,–
"O=C(NCc1c(F)cc(F)cc1F)c1cn2c(c(O)c1=O)C(=O)N1CC[C@@H](F)CC[C@H]2C1 [Example 81-2, (5S,8S)-5-fluoro-13-hydroxy-1,12-dioxo-N-(2,4,6-trifluorobenzyl)-1,3,4,5,6,7,8,12-octahydro-2,8-methanopyrido[1,2-a][1,4]diazecine-11-carboxamide]",1.35 nM,11200 nM,0.737 nM,0.304 nM,–
"C[C@@H]1CC[C@H]2C[C@@]23CN1C(=O)c1c(O)c(=O)c(C(=O)NCc2c(F)cc(F)cc2F)cn13 [Example 150, (1aS,4R,11aS)-7-hydroxy-4-methyl-6,8-dioxo-N-(2,4,6-trifluorobenzyl)-1a,2,3,4,6,8-hexahydro-1H-5,11a-methanocyclopropa[h]pyrido[1,2-a][1,4]diazonine-9-carboxamide]",1.98 nM,8490 nM,4.41 nM,0.171 nM,–
"O=C(NCc1ccc(F)cc1F)c1cn2c(c(O)c1=O)C(=O)N1C[C@@H](F)CC[C@@H]2C1 (single isomer, unassigned) [Example 53-3]",1.94 nM,11200 nM,75.2 nM,0.223 nM,–
"O=C(NCc1ccc(F)cc1F)c1cn2c(c(O)c1=O)C(=O)N1CCCOC[C@H]2C1 [Example 1-2, (R)-N-(2,4-difluorobenzyl)-13-hydroxy-1,12-dioxo-1,4,5,7,8,12-hexahydro-3H-2,8-methanopyrido[1,2-d][1,4,7]oxadiazecine-11-carboxamide]",5.7 nM,20700 nM,13.9 nM,1.37 nM,–
"O=C(NCc1c(F)cc(F)cc1F)c1cn2c(c(O)c1=O)C(=O)N1CCC(F)=C[C@H]2C1 [Example 121, (7S)-5-fluoro-12-hydroxy-1,11-dioxo-N-(2,4,6-trifluorobenzyl)-1,4,7,11-tetrahydro-3H-2,7-methanopyrido[1,2-a][1,4]diazonine-10-carboxamide]",1.76 nM,24800 nM,0.505 nM,0.235 nM,–
"C[C@H]1[C@@H]2CCCCN1C(=O)c1c(O)c(=O)c(C(=O)NCc3c(F)cc(F)cc3F)cn12 [Example 8, (7S, 13S)-12-hydroxy-13-methyl-1,11-dioxo-N-(2,4,6-trifluorobenzyl)-1,4,5,6,7,11-hexahydro-3H-2,7-methanopyrido[1,2-a][1,4]diazonine-10-carboxamide]",–,20800 nM,1.41 nM,0.41 nM,1.5 nM
"O=C(NCc1ccc(F)cc1F)c1cn2c(c(O)c1=O)C(=O)N1CCC[C@@H]3C[C@]32C1 [Example 65-1, (1aR,11aR)—N-(2,4-difluorobenzyl)-7-hydroxy-6,8-dioxo-1a,2,3,4,6,8-hexahydro-1H-5,11a-methanocyclopropa[h]pyrido[1,2-a][1,4]diazonine-9-carboxamide]",1.73 nM,8800 nM,28.5 nM,0.297 nM,–
"C[C@H]1[C@H](F)CC[C@H]2CN1C(=O)c1c(O)c(=O)c(C(=O)NCc3c(F)cc(F)cc3F)cn12 [Example 158, (3S,4R,7S)-4-fluoro-12-hydroxy-3-methyl-1,11-dioxo-N-(2,4,6-trifluorobenzyl)-1,4,5,6,7,11-hexahydro-3H-2,7-methanopyrido[1,2-a][1,4]diazonine-10-carboxamide]",1.67 nM,8830 nM,49.7 nM,0.306 nM,–
"O=C(NCc1ccc(F)c(Cl)c1F)c1cn2c(c(O)c1=O)C(=O)N1CCC=C(F)[C@@H]2C1 (single isomer, unassigned) [Example 123-2]",1.93 nM,14600 nM,440 nM,0.245 nM,–
"C[C@@H]1CC[C@H]2CN(C(=O)c3c(O)c(=O)c(C(=O)NCc4c(F)cc(F)cc4F)cn32)[C@H]1C [Example 108-1, (3S,4R,7S)-12-hydroxy-3,4-dimethyl-1,11-dioxo-N-(2,4,6-trifluorobenzyl)-1,4,5,6,7,11-hexahydro-3H-2,7-methanopyrido[1,2-a][1,4]diazonine-10-carboxamide]",0.997 nM,16100 nM,1.31 nM,0.2 nM,–
"C[C@H]1OC[C@H](C)N2C[C@H]1n1cc(C(=O)NCc3c(F)cc(F)cc3F)c(=O)c(O)c1C2=O [Example 195, (3S,6R,7R)-12-hydroxy-3,6-dimethyl-1,11-dioxo-N-(2,4,6-trifluorobenzyl)-1,3,4,6,7,11-hexahydro-2,7-methanopyrido[1,2-d][1,4,7]oxadiazonine-10-carboxamide]",1.73 nM,16700 nM,10.4 nM,0.441 nM,–
"O=C(NCc1c(F)cc(F)cc1F)c1cn2c(c(O)c1=O)C(=O)N1CCC=C[C@@H]2C1 [Example 109-1, (7R)-12-hydroxy-1,11-dioxo-N-(2,4,6-trifluorobenzyl)-1,4,7,11-tetrahydro-3H-2,7-methanopyrido[1,2-a][1,4]diazonine-10-carboxamide]",1.81 nM,11300 nM,50.8 nM,0.527 nM,–
"O=C(NCc1c(F)cc(F)cc1F)c1cn2c(c(O)c1=O)C(=O)N1CCc3ccc(F)cc3[C@H]2C1 [Example 147, (13S)-11-fluoro-4-hydroxy-3,5-dioxo-N-(2,4,6-trifluorobenzyl)-3,5,8,13-tetrahydro-7H-6,13-methanobenzo[g]pyrido[1,2-a][1,4]diazonine-2-carboxamide]",2.14 nM,6910 nM,3.64 nM,0.375 nM,–
"O=C(NCc1c(F)cc(F)cc1F)c1cn2c(c(O)c1=O)C(=O)N1CC(F)CC[C@H]2C1 (stereo partly drawn) [Example 178, (7S)-4-fluoro-12-hydroxy-1,11-dioxo-N-(2,4,6-trifluorobenzyl)-1,4,5,6,7,11-hexahydro-3H-2,7-methanopyrido[1,2-a][1,4]diazonine-10-carboxamide]",2.14 nM,16700 nM,6.56 nM,0.43 nM,–
"O=C(NCc1c(F)cc(F)cc1F)c1cn2c(c(O)c1=O)C(=O)N1Cc3ccccc3C[C@H]2C1 [Example 70, (6S)-1-hydroxy-2,14-dioxo-N-(2,4,6-trifluorobenzyl)-2,7,12,14-tetrahydro-6H-6,13-methanobenzo[f]pyrido[1,2-a][1,4]diazonine-3-carboxamide]",1.41 nM,13300 nM,1.32 nM,0.322 nM,–
"O=C(NCc1c(F)cc(F)cc1F)c1cn2c(c(O)c1=O)C(=O)N1CCc3ccc(Br)cc3[C@@H]2C1 (single isomer, unassigned) [Example 122-2]",14.4 nM,4770 nM,298 nM,3.77 nM,–
"O=C(NCc1c(F)cc(F)cc1F)c1cn2c(c(O)c1=O)C(=O)N1CCc3ccccc3[C@H]2C1 (single isomer, unassigned) [Example 63-1]",1.7 nM,13800 nM,2.16 nM,0.461 nM,–
"O=C(NCc1c(F)cc(F)cc1F)c1cn2c(c(O)c1=O)C(=O)N1CCc3cc(Cl)ccc3[C@@H]2C1 [Example 136-2, (13R)-10-chloro-4-hydroxy-3,5-dioxo-N-(2,4,6-trifluorobenzyl)-3,5,8,13-tetrahydro-7H-6,13-methanobenzo[g]pyrido[1,2-a][1,4]diazonine-2-carboxamide]",1.55 nM,6550 nM,5.71 nM,0.392 nM,–
CC[C@]1(O)CCCN2C[C@H]1n1cc(C(=O)NCc3c(F)cc(F)cc3F)c(=O)c(O)c1C2=O [Example 93],2.24 nM,> 40400 nM,1.55 nM,0.462 nM,–
"C[C@@H]1CC[C@H](C)N2C[C@H]1n1cc(C(=O)NCc3c(F)cc(F)cc3F)c(=O)c(O)c1C2=O [Example 174, (3S,6R,7S)-12-hydroxy-3,6-dimethyl-1,11-dioxo-N-(2,4,6-trifluorobenzyl)-1,4,5,6,7,11-hexahydro-3H-2,7-methanopyrido[1,2-a][1,4]diazonine-10-carboxamide]",1.26 nM,11400 nM,58.4 nM,0.346 nM,–
